According to ChEMBL document CHEMBL1135206, “Albumin affinity tags increase peptide half-life in vivo” (Bioorg Med Chem Lett, 2002):
*1 amine or outer side, *2 acyl side, *3 side chain or, on linkers, in order; H or OH if unused. Where a SMILES comes first, the peptide text is derived from it. Bridges are numbered along the chain shown (N, C = ends). [ ]: non-standard residue; d: D form. The star is where a group is joined. X3 = C[C@@H](C(=O)[*:2])N(Cc1ccccc1OC(F)(F)F)[*:1]; X5 = C[C@@H](C(=O)[*:2])N(Cc1cccc2ccccc12)[*:1]; 2Naphthylsulfonyl = O=S(=O)(c1ccc2ccccc2c1)*; X2 = O=C(CCC(=O)*)NS(=O)(=O)c1ccc2ccccc2c1; Quinoline3carbonyl = O=C(c1cnc2ccccc2c1)*; X6 = O=C(c1ccc(-c2ccccc2[N+](=O)[O-])o1)*; Mts = Cc1cc(C)c(S(=O)(=O)*)c(C)c1; Quinaldoyl = O=C(c1ccc2ccccc2n1)*; NH(4-Cl-phenyl) = Clc1ccc(N*)cc1; CO = O=C([*:1])[*:2]; X4 = Cc1cccc(N*)c1

How the values were obtained:
Coagulation factor VII = target: T1, Coagulation factor VII (Homo sapiens, UniProt P08709); assay: Inhibition of amino terminally biotinylated E-76 peptide binding to immobilized fVIIa
T1 sequence (P08709 whole entry): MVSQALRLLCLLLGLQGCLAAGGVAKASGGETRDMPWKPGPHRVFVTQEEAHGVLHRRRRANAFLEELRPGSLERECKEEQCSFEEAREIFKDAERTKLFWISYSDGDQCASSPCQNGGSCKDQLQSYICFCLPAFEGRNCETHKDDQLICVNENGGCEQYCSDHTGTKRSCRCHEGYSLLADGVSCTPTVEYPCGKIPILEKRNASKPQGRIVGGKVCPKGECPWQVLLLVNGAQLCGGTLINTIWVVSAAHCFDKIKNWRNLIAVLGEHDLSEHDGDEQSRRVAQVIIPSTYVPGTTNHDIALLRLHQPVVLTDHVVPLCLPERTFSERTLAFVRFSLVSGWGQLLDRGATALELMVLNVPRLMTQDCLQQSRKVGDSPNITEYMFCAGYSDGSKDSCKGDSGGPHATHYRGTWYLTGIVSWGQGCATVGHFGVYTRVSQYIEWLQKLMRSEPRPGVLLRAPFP

Albumin = Albumin (Homo sapiens, UniProt P02768); assay: In vitro binding affinity for human serum albumin.; design: unit not given here
[1] = Mean retention time in male New Zealand white rabbits after i.v. administration at 2.0 mg/kg; type: ADME, organism-based, Oryctolagus cuniculus; design: dose 2 mg/kg, route intravenous; conditions: rabbit, in vivo, iv
[2] = Clearance in male New Zealand white rabbits after i.v. administration at 2.0 mg/kg; type: ADME, organism-based, Oryctolagus cuniculus; design: dose 2 mg/kg, route intravenous; conditions: rabbit, in vivo, iv
[3] = Plasma half-life in male New Zealand white rabbits after i.v. administration at 2.0 mg/kg; type: ADME, organism-based, Oryctolagus cuniculus; design: dose 2 mg/kg, route intravenous; conditions: rabbit, iv

Albumin, sequence (P02768 whole entry): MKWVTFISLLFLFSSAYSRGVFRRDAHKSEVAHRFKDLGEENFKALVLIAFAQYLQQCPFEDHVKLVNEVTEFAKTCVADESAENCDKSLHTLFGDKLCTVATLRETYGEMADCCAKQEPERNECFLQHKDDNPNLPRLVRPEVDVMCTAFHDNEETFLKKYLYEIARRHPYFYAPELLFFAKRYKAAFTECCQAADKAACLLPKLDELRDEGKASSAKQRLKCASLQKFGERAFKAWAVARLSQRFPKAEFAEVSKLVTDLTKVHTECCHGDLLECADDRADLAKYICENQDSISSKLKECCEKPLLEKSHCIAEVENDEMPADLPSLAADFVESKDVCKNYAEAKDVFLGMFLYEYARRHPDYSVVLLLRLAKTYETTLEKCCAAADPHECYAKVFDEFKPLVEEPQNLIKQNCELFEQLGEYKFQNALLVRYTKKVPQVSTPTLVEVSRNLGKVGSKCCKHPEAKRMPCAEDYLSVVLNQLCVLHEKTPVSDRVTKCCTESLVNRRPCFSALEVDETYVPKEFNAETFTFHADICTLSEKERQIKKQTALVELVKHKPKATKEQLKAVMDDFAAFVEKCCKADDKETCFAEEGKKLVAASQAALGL

Compound `CC[C@H](C)[C@@H]1NC(=O)[C@H](CCCNC(=N)N)NC(=O)[C@@H]2CCCN2C(=O)[C@H](CC(N)=O)NC(=O)[C@H](CC(=O)O)NC(=O)[C@@H](NC(=O)[C@H](CC(C)C)NC(=O)[C@H](C)NS(=O)(=O)c2ccc3ccccc3c2)CSSC[C@@H](C(=O)N[C@@H](CCC(N)=O)C(=O)N[C@@H](Cc2ccccc2)C(=O)N[C@H](C(=O)N[C@@H](CCC(=O)O)C(=O)NCC(N)=O)C(C)C)NC(=O)[C@H](Cc2ccc(O)cc2)NC(=O)[C@H](Cc2c[nH]c3ccccc23)NC(=O)[C@H](CCCNC(=N)N)NC(=O)[C@H](CC(=O)O)NC1=O` (2Naphthylsulfonyl-ALCDNPRIDRWYCQFVEG-NH2; disulfide 3-13) has an IC50 (Coagulation factor VII) of 20.4 nM and a Binding affinity (Albumin) of 0.92.
`CC[C@H](C)[C@@H]1NC(=O)[C@H](CCCN=C(N)N)NC(=O)[C@@H]2CCCN2C(=O)[C@H](CC(N)=O)NC(=O)[C@H](CC(=O)O)NC(=O)[C@@H](NC(=O)[C@H](CC(C)C)NC(=O)[C@H](C)NCc2ccccc2OC(F)(F)F)CSSC[C@@H](C(=O)N[C@@H](CCC(N)=O)C(=O)N[C@@H](Cc2ccccc2)C(=O)N[C@H](C(=O)N[C@@H](CCC(=O)O)C(=O)NCC(N)=O)C(C)C)NC(=O)[C@H](Cc2ccc(O)cc2)NC(=O)[C@H](Cc2c[nH]c3ccccc23)NC(=O)[C@H](CCCN=C(N)N)NC(=O)[C@H](CC(=O)O)NC1=O` (H-[X3]LCDNPRIDRWYCQFVEG-NH2; disulfide 3-13) showed an IC50 (Coagulation factor VII) of 13.4 nM and a Binding affinity (Albumin) of 0.93.
`CC[C@H](C)[C@@H]1NC(=O)[C@H](CCCNC(=N)N)NC(=O)[C@@H]2CCCN2C(=O)[C@H](CC(N)=O)NC(=O)[C@H](CC(=O)O)NC(=O)[C@@H](NC(=O)[C@H](CC(C)C)NC(=O)[C@H](C)NCc2cccc3ccccc23)CSSC[C@@H](C(=O)N[C@@H](CCC(N)=O)C(=O)N[C@@H](Cc2ccccc2)C(=O)N[C@H](C(=O)N[C@@H](CCC(=O)O)C(=O)NCC(N)=O)C(C)C)NC(=O)[C@H](Cc2ccc(O)cc2)NC(=O)[C@H](Cc2c[nH]c3ccccc23)NC(=O)[C@H](CCCNC(=N)N)NC(=O)[C@H](CC(=O)O)NC1=O` (H-[X5]LCDNPRIDRWYCQFVEG-NH2; disulfide 3-13) showed an IC50 (Coagulation factor VII) of 1.6 nM and a Binding affinity (Albumin) of 0.69.
With `CC[C@H](C)[C@@H]1NC(=O)[C@H](CCCNC(=N)N)NC(=O)[C@@H]2CCCN2C(=O)[C@H](CC(N)=O)NC(=O)[C@H](CC(=O)O)NC(=O)[C@@H](NC(=O)[C@H](CC(C)C)NC(=O)[C@H](C)NS(=O)(=O)c2c(C)cc(C)cc2C)CSSC[C@@H](C(=O)N[C@@H](CCC(N)=O)C(=O)N[C@@H](Cc2ccccc2)C(=O)N[C@H](C(=O)N[C@@H](CCC(=O)O)C(=O)NCC(N)=O)C(C)C)NC(=O)[C@H](Cc2ccc(O)cc2)NC(=O)[C@H](Cc2c[nH]c3ccccc23)NC(=O)[C@H](CCCNC(=N)N)NC(=O)[C@H](CC(=O)O)NC1=O` (Mts-ALCDNPRIDRWYCQFVEG-NH2; disulfide 3-13) the IC50 (Coagulation factor VII) was 10 nM and the Binding affinity (Albumin) was 0.82.
For `CC[C@H](C)[C@@H]1NC(=O)[C@H](CCCN=C(N)N)NC(=O)[C@@H]2CCCN2C(=O)[C@H](CC(N)=O)NC(=O)[C@H](CC(=O)O)NC(=O)[C@@H](NC(=O)[C@H](CC(C)C)NC(=O)[C@H](C)NC(=O)c2ccc3ccccc3n2)CSSC[C@@H](C(=O)N[C@@H](CCC(N)=O)C(=O)N[C@@H](Cc2ccccc2)C(=O)N[C@H](C(=O)N[C@@H](CCC(=O)O)C(=O)NCC(N)=O)C(C)C)NC(=O)[C@H](Cc2ccc(O)cc2)NC(=O)[C@H](Cc2c[nH]c3ccccc23)NC(=O)[C@H](CCCN=C(N)N)NC(=O)[C@H](CC(=O)O)NC1=O` (Quinaldoyl-ALCDNPRIDRWYCQFVEG-NH2; disulfide 3-13), the IC50 (Coagulation factor VII) was 2.9 nM and the Binding affinity (Albumin) was 0.64.
In the case of `CC[C@H](C)[C@@H]1NC(=O)[C@H](CCCN=C(N)N)NC(=O)[C@@H]2CCCN2C(=O)[C@H](CC(N)=O)NC(=O)[C@H](CC(=O)O)NC(=O)[C@@H](NC(=O)[C@H](CC(C)C)NC(=O)[C@H](C)NC(=O)c2cnc3ccccc3c2)CSSC[C@@H](C(=O)N[C@@H](CCC(N)=O)C(=O)N[C@@H](Cc2ccccc2)C(=O)N[C@H](C(=O)N[C@@H](CCC(=O)O)C(=O)NCC(N)=O)C(C)C)NC(=O)[C@H](Cc2ccc(O)cc2)NC(=O)[C@H](Cc2c[nH]c3ccccc23)NC(=O)[C@H](CCCN=C(N)N)NC(=O)[C@H](CC(=O)O)NC1=O` (Quinoline3carbonyl-ALCDNPRIDRWYCQFVEG-NH2; disulfide 3-13), the IC50 (Coagulation factor VII) is reported as 11.8 nM and the Binding affinity (Albumin) is reported as 0.64.
In the case of `CC[C@H](C)[C@@H]1NC(=O)[C@H](CCCN=C(N)N)NC(=O)[C@@H]2CCCN2C(=O)[C@H](CC(N)=O)NC(=O)[C@H](CC(=O)O)NC(=O)[C@@H](NC(=O)[C@H](CC(C)C)NC(=O)[C@H](C)NC(=O)CCC(=O)NS(=O)(=O)c2ccc3ccccc3c2)CSSC[C@@H](C(=O)N[C@@H](CCC(N)=O)C(=O)N[C@@H](Cc2ccccc2)C(=O)N[C@H](C(=O)N[C@@H](CCC(=O)O)C(=O)NCC(N)=O)C(C)C)NC(=O)[C@H](Cc2ccc(O)cc2)NC(=O)[C@H](Cc2c[nH]c3ccccc23)NC(=O)[C@H](CCCN=C(N)N)NC(=O)[C@H](CC(=O)O)NC1=O` (X2-ALCDNPRIDRWYCQFVEG-NH2; disulfide 3-13), the MRT [1] is reported as 35 min, the IC50 (Coagulation factor VII) is reported as 1 nM and the Binding affinity (Albumin) is reported as 0.97. The clearance [2] was 1.6 mL/min/kg and the half-life [3] was 30 min.
Work on `CC[C@H](C)[C@@H]1NC(=O)[C@H](CCCNC(=N)N)NC(=O)[C@@H]2CCCN2C(=O)[C@H](CC(N)=O)NC(=O)[C@H](CC(=O)O)NC(=O)[C@@H](NC(=O)[C@H](CC(C)C)NC(=O)[C@H](C)NC(=O)c2ccc(-c3ccccc3[N+](=O)[O-])o2)CSSC[C@@H](C(=O)N[C@@H](CCC(N)=O)C(=O)N[C@@H](Cc2ccccc2)C(=O)N[C@H](C(=O)N[C@@H](CCC(=O)O)C(=O)NCC(N)=O)C(C)C)NC(=O)[C@H](Cc2ccc(O)cc2)NC(=O)[C@H](Cc2c[nH]c3ccccc23)NC(=O)[C@H](CCCNC(=N)N)NC(=O)[C@H](CC(=O)O)NC1=O` (X6-ALCDNPRIDRWYCQFVEG-NH2; disulfide 3-13) yielded an IC50 (Coagulation factor VII) of 1 nM and a Binding affinity (Albumin) of 0.79.
Compound `CC[C@H](C)[C@@H]1NC(=O)[C@H](CCCN=C(N)N)NC(=O)[C@@H]2CCCN2C(=O)[C@H](CC(N)=O)NC(=O)[C@H](CC(=O)O)NC(=O)[C@@H](NC(=O)[C@H](CC(C)C)NC(=O)[C@H](C)NC(=O)Nc2ccc(Cl)cc2)CSSC[C@@H](C(=O)N[C@@H](CCC(N)=O)C(=O)N[C@@H](Cc2ccccc2)C(=O)N[C@H](C(=O)N[C@@H](CCC(=O)O)C(=O)NCC(N)=O)C(C)C)NC(=O)[C@H](Cc2ccc(O)cc2)NC(=O)[C@H](Cc2c[nH]c3ccccc23)NC(=O)[C@H](CCCN=C(N)N)NC(=O)[C@H](CC(=O)O)NC1=O` ({NH(4-Cl-phenyl)-CO}-ALCDNPRIDRWYCQFVEG-NH2; disulfide 3-13) has an IC50 (Coagulation factor VII) of 13.4 nM and a Binding affinity (Albumin) of 0.65.
`CC[C@H](C)[C@@H]1NC(=O)[C@H](CCCNC(=N)N)NC(=O)[C@@H]2CCCN2C(=O)[C@H](CC(N)=O)NC(=O)[C@H](CC(=O)O)NC(=O)[C@@H](NC(=O)[C@H](CC(C)C)NC(=O)[C@H](C)NC(=O)Nc2cccc(C)c2)CSSC[C@@H](C(=O)N[C@@H](CCC(N)=O)C(=O)N[C@@H](Cc2ccccc2)C(=O)N[C@H](C(=O)N[C@@H](CCC(=O)O)C(=O)NCC(N)=O)C(C)C)NC(=O)[C@H](Cc2ccc(O)cc2)NC(=O)[C@H](Cc2c[nH]c3ccccc23)NC(=O)[C@H](CCCNC(=N)N)NC(=O)[C@H](CC(=O)O)NC1=O` ({X4-CO}-ALCDNPRIDRWYCQFVEG-NH2; disulfide 3-13) gave an IC50 (Coagulation factor VII) of 1.8 nM and a Binding affinity (Albumin) of 0.59.
